Reference: patent publication US20190119642A1, “METHODS AND COMPOSITIONS RELATING TO HEMATOPOIETIC STEM CELL EXPANSION” (CHILDREN'S MEDICAL CENTER CORPORATION, priority 2016, published 2019)

Test system: CD34+ enriched cord blood cells
Test: Ex vivo expansion of CD34+ enriched cord blood cells, 12 days in culture with small molecules, flow cytometry
Conditions: for percentage and total number of Lin-CD34+ and Lin- cells: CD34+ cord blood cells cultured in vitro 12 days, FIGS. 21-23
Procedure: CD34+ enriched cord blood cells were obtained from AllCells. Ten thousand cells were cultured in StemSpan SFEMII containing recombinant human SCF, TPO, IL-3 and FLT3L (all at 100 ng/ml). Cells were cultured with cytokine containing media with the vehicle control (DMSO) or the indicated small molecules. Media was changed every three days. On day twelve, cells were harvested, counted, and analyzed by flow cytometry.
Plots show samples previously gated through live (PI-) and singlet gates. Gating strategy for immunophenotypic hematopoietic stem cells (HSCs) defined as Lin−CD34+CD45RA−CD90+ and Lin−CD34+CD45RA−CD90+CD49f+EPCR+ HSCs is shown. Percentages indicate the frequency of the parent (previous) gate.
Plots show samples previously gated through live (PI-) and singlet gates. Gating strategy for immunophenotypic hematopoietic stem cells (HSCs) as Lin−CD34+CD45RA−CD90+ and Lin−CD34+CD45RA−CD90+CD49f+EPCR+ are shown. Percentages indicate the frequency of cells in the parent population.
Depicted is the total number of live cells after 12 days of culturing 10,000 CD34+ enriched cord blood cells in the indicated conditions.
CD34+ cord blood cells were cultured in vitro in the presence of different combinations of compounds as described herein.

| Compound | percentage and total number of Lin-CD34+ and Lin- cells | percentage and total number of Lin-CD45RA-CD90+ HSCs (CD34+ cord blood cells, 12 days culture, FIG. 24, 25) | percentage of Lin-CD45RA-CD90+CD49f+EPCR+ HSCs (CD34+ cord blood cells, 12 days culture, FIG. 26, 27) |
| --- | --- | --- | --- |
| C[S+]([O-])c1ccc(-c2nc(-c3ccc(F)cc3)c(-c3ccncc3)[nH]2)cc1 (centres unmarked) [A, A83-01] | increased |  |  |
| Nc1cccc2c1C(=O)N(C1CCC(=O)NC1=O)C2=O (centres unmarked) [POM, pomalidomide] | increased | increased | increased |
| CC(C)n1cnc2c(NCCc3ccc(O)cc3)nc(-c3csc4ccccc34)nc21 [SR1, StemRegenin 1] | increased |  |  |
